Test results: PMC11643494, “Structure–Activity Relationship Studies in a Series of 2-Aryloxy-N-(pyrimidin-5-yl)acetamide Inhibitors of SLACK Potassium Channels” (Molecules, 2024)

Target: T1, Mouse WT SLACK (Mus musculus, UniProt Q6ZPR4)
T1 construct: expressed in transfected cells; host or cells: CHO-K1
T1 sequence (Q6ZPR4 1-1224): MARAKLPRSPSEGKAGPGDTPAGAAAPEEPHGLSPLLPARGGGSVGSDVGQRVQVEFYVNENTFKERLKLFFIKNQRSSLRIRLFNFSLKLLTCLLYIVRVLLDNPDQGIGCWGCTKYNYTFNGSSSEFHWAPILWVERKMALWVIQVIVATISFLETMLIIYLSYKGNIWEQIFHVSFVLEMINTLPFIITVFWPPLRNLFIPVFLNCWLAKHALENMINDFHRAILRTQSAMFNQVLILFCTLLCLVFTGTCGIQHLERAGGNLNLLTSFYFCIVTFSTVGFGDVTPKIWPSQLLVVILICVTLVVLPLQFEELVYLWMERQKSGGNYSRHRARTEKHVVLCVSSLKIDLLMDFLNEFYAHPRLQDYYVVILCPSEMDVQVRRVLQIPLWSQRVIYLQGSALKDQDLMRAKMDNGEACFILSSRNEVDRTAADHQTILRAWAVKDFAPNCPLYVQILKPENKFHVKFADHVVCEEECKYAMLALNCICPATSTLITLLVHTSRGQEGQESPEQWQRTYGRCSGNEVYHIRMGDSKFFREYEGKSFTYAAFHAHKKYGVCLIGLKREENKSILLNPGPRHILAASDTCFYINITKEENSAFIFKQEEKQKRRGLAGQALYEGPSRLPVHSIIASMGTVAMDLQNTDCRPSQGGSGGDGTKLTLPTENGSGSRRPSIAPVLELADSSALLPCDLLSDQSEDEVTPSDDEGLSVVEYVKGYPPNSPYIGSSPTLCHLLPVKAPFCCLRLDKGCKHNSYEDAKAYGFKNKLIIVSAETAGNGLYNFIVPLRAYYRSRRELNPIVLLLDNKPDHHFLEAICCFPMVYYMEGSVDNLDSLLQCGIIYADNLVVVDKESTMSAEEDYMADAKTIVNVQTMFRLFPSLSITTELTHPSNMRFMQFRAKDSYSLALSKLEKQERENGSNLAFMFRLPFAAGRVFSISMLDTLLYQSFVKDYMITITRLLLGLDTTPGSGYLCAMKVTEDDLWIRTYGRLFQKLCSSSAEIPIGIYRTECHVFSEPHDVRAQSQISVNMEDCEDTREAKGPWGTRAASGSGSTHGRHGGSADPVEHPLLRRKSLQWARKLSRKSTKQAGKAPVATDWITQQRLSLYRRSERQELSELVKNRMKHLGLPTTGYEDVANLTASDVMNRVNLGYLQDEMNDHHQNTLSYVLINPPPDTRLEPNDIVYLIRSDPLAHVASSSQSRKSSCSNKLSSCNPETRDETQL
Assay: Whole-cell APC in CHO-K1 cells stably expressing mouse WT SLACK
Type: cell-based
Conditions: for IC50: APC, CHO-K1 cells; for Imax: maximum inhibition at 30 µM standardized to VU0606170 (set at 100%)
Procedure: Finally, we chose to screen the same two compounds versus mouse SLACK and two clinically relevant GOF SLACK mutants in APC assays utilizing CHO-K1 cells stably expressing these targets (Table 7). Screening versus the mouse homolog was deemed important for evaluating the potential of the series to ultimately lead to a useful in vivo tool via further optimization.
Automated patch clamp recording was performed with a SyncroPatch 768 PE system (Nanion, Munich, Germany) as previously described. Whole-cell recordings were performed at room temperature. Cells were harvested by first washing with PBS without Mg^2+ or Ca^2+ (Gibco, Billings, MT, USA) to remove cell culture medium, followed by dissociation with TryPLE (Gibco, Billings, MT, USA). Cells were then resuspended and diluted to 200,000 cells/mL in external solution. External solution contained 105 mM NaCl, 4 mM KCl, 1 mM MgCl2, 5 mM CaCl2, 10 mM HEPES, 40 mM N-Methyl-D-glucamine chloride, titrated to pH 7.4 with NaOH and osmolarity of 300 mOsm/kg; internal solution contained 70 mM NaCl, 70 mM KF, 10 mM KCl, 5 mM EGTA, 5mM HEPES, titrated to a pH 7.2 with KOH and osmolarity of 295 mOsm/kg.
The APC protocol was set as following: Cells were held at […] −80 mV for 100 ms, then a ramp protocol was performed from −100 mV to 80 mV at 0.4 mV/ms, hold the cell at −80 mV for another 100 ms, then steps were performed at −20 mV, 0 mV, +20 mV, +40 mV, and +60 mV for 100 ms of each step. Whole-cell currents were measured at 0 mV and normalized to current after external buffer addition.

Structure (SMILES)	IC50 [nM]	Imax [%]
CC(C)(Oc1ccc(Cl)cc1)C(=O)Nc1cnc(Oc2c(F)cccc2F)nc1 [Analog 40]	320	100
CN(c1ccc(C#N)cc1)c1ncc(NC(=O)C(C)(C)Oc2ccc(Cl)cc2)cn1 [Analog 66]	790	91
